pIC50, pKd: −log10 of the molar value.

In one test the test system is NUGC4 WT. In words: cells. On the set-up: ATP-based cell viability assay, growth inhibition of wild-type NUGC4 in FCS-free medium, 3 days. The note with it: Homo sapiens, NUGC-4, 72 h; read-out: Growth inhibition (IC50) NUGC4 WT. As to the method: For growth inhibition experiments, MKN45 or NUGC4 cells were grown in 96-well plates at 5 × 10^3/well on the previous day, and the cell supernatant was discarded and washed once with phosphate-buffered saline (PBS). Fucoidan or fucoidan analog solutions diluted in FCS-free Advanced RPMI 1640 medium were added to the cells and cultured for another 3 days. Cell proliferation was measured using the ATP-based cell viability assay. Fucoidan analogs inhibited the proliferative ability of NUGC4 cells, but minimal inhibitory activity was observed against KO cells (Figure 3B).

The test system of another test is MKN45. In words: cells. Further details: ATP-based cell viability assay, growth inhibition of MKN45 in FCS-free medium, 3 days. The note with it: Homo sapiens, MKN-45, 72 h; read-out: Growth inhibition (IC50) MKN45. Here is the method: For growth inhibition experiments, MKN45 or NUGC4 cells were grown in 96-well plates at 5 × 10^3/well on the previous day, and the cell supernatant was discarded and washed once with phosphate-buffered saline (PBS). Fucoidan or fucoidan analog solutions diluted in FCS-free Advanced RPMI 1640 medium were added to the cells and cultured for another 3 days. Cell proliferation was measured using the ATP-based cell viability assay. We first measured the inhibitory activities of all synthesized fucoidan analogs 1–14 to narrow down the candidate. […] Next, the inhibitory activity of fucoidan analogs on the proliferation of MKN45 cells was measured (Figure 3A). […] From the viewpoint of growth and binding inhibitory activities, we narrowed it down to 2, 3, 10, 12, and 14 for further investigation.

The target in a further test is T1, galectin-4 (Homo sapiens, UniProt P56470).
T1 construct: gene LGALS4; full-length, His-tagged (pQE-9), E. coli M15[pREP4], TALON purified; two CRDs (N-CRD and C-CRD), approx. 36 kDa; amine-coupled on CM5 chip for SPR
T1 sequence (P56470 1-323): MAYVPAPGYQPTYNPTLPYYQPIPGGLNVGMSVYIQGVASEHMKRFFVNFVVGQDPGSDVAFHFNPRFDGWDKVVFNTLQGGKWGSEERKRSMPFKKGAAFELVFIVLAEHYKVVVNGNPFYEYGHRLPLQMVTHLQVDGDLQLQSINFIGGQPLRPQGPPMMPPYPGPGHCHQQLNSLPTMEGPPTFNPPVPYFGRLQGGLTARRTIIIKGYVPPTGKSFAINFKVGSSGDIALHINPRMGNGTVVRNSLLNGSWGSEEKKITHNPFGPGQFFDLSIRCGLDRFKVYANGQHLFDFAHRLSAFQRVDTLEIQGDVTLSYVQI
The test is described as follows: SPR (Biacore X100, galectin-4 immobilised on CM5), multi cycle. The note with it: 25 °C, HBS-EP pH 7.4; LNT 31.3–500 μM; read-out: equilibrium binding constant. A general note: Surface plasmon resonance follows binding to a sensor surface in real time, without labels.

For the compound `CCCCCCCCO[C@H]1O[C@@H](C)[C@@H](O[C@@H]2O[C@@H](C)[C@@H](O[C@@H]3O[C@@H](C)[C@@H](O[C@@H]4O[C@@H](C)[C@@H](OS(=O)(=O)O)[C@@H](OS(=O)(=O)O)[C@@H]4OS(=O)(=O)O)[C@@H](OS(=O)(=O)O)[C@@H]3OS(=O)(=O)O)[C@@H](OS(=O)(=O)O)[C@@H]2OS(=O)(=O)O)[C@@H](OS(=O)(=O)O)[C@@H]1OS(=O)(=O)O` [compound 10, fucoidan analog 10], the pIC50 in the test with NUGC4 WT was > 4.30.

On to `CCCCCCCCOC1O[C@@H](C)[C@@H](O)[C@@H](O[C@@H]2O[C@@H](C)[C@@H](O)[C@@H](O[C@@H]3O[C@@H](C)[C@@H](O)[C@@H](O[C@@H]4O[C@@H](C)[C@@H](O)[C@@H](OS(=O)(=O)O)[C@@H]4OS(=O)(=O)O)[C@@H]3OS(=O)(=O)O)[C@@H]2OS(=O)(=O)O)[C@@H]1OS(=O)(=O)O` (some centres unmarked) [compound 3, fucoidan analog 3], for which the pIC50 in the test on MKN45 is < 4.00; with NUGC4 WT it was < 4.30.

On to `CC(=O)N[C@H]1[C@H](O[C@H]2[C@@H](O)[C@@H](CO)O[C@@H](O[C@H]3[C@H](O)[C@@H](O)C(O)O[C@@H]3CO)[C@@H]2O)O[C@H](CO)[C@@H](O)[C@@H]1O[C@@H]1O[C@H](CO)[C@H](O)[C@H](O)[C@H]1O` (some centres unmarked) [LNT], for which the pKd on galectin-4 is 3.70.

Take `CCCCCCCCOC1OC(C)C(OC2OC(C)C(OC3OC(C)C(OC4OC(C)C(O)C(O)C4O)C(O)C3O)C(O)C2O)C(O)C1O` (centres unmarked) [compound 13, 13]: the pIC50 in the test with MKN45 is < 4.00.

Turning to `CCCCCCCCOC1OC(C)C(O)C(OC2OC(C)C(O)C(OC3OC(C)C(O)C(OC4OC(C)C(O)C(O)C4O)C3O)C2O)C1O` (centres unmarked) [compound 4, 4], in the test with MKN45, the pIC50 is < 4.00.

Turning to `CCCCCCCCO[C@H]1O[C@@H](C)[C@@H](O[C@@H]2O[C@@H](C)[C@@H](O[C@@H]3O[C@@H](C)[C@@H](O[C@@H]4O[C@@H](C)[C@@H](O)[C@@H](O)[C@@H]4OS(=O)(=O)O)[C@@H](O)[C@@H]3OS(=O)(=O)O)[C@@H](O)[C@@H]2OS(=O)(=O)O)[C@@H](O)[C@@H]1OS(=O)(=O)O` [compound 12, fucoidan analog 12], the pIC50 in the test on MKN45 is < 4.00; with NUGC4 WT, < 4.30.

By pIC50 is commonly meant −log10 of the IC50, conventionally taken in molar units.

Values taken from publication PMC12470716, “Inhibitory Effect of Fucoidan Analogs on Highly Metastatic Gastric Cancer Cells via Galectin-4 Inhibition” (International Journal of Molecular Sciences, 2025).
